A value given as a limit tells only on which side of the number the result lay.

51 compounds from patent US9249131B2, “Modulators of ATP-binding cassette transporters” (Vertex Pharmaceuticals Incorporated, priority 2003, dated 2016) can be followed below.

This test concerns the target T1, ΔF508-CFTR (Homo sapiens, UniProt P13569, DEL508-508).
T1 construct: expressed in transfected cells; host or cells: NIH3T3 mouse fibroblasts stably expressing ΔF508-CFTR for the optical, whole-cell and single-channel assays; Fisher rat epithelial (FRT) cells for Ussing chamber follow-up
In words: Assays for ΔF508-CFTR correction and potentiator properties (membrane potential optical and electrophysiological methods). Type of test: cell-based. Conditions: CFTR modulation; for % Activity: % Efficacy; for EC50: tested using the above methods. The procedure, abridged:
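NIH3T3 mouse fibroblasts stably expressing ΔF508-CFTR were used, with membrane potential read by DiSBAC2(3)/CC2-DMPE FRET on VIPR. Correctors: 16 h compound exposure at 37 °C, then activation with forskolin plus genistein in Cl⁻-free medium. Potentiators: cells held 24 h at 27 °C, compound added in Cl⁻-free medium, 2-10 μM forskolin 22 s later (final Cl⁻ 28 mM).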

T1 sequence (P13569 with tags, fused parts or gaps DEL508-508): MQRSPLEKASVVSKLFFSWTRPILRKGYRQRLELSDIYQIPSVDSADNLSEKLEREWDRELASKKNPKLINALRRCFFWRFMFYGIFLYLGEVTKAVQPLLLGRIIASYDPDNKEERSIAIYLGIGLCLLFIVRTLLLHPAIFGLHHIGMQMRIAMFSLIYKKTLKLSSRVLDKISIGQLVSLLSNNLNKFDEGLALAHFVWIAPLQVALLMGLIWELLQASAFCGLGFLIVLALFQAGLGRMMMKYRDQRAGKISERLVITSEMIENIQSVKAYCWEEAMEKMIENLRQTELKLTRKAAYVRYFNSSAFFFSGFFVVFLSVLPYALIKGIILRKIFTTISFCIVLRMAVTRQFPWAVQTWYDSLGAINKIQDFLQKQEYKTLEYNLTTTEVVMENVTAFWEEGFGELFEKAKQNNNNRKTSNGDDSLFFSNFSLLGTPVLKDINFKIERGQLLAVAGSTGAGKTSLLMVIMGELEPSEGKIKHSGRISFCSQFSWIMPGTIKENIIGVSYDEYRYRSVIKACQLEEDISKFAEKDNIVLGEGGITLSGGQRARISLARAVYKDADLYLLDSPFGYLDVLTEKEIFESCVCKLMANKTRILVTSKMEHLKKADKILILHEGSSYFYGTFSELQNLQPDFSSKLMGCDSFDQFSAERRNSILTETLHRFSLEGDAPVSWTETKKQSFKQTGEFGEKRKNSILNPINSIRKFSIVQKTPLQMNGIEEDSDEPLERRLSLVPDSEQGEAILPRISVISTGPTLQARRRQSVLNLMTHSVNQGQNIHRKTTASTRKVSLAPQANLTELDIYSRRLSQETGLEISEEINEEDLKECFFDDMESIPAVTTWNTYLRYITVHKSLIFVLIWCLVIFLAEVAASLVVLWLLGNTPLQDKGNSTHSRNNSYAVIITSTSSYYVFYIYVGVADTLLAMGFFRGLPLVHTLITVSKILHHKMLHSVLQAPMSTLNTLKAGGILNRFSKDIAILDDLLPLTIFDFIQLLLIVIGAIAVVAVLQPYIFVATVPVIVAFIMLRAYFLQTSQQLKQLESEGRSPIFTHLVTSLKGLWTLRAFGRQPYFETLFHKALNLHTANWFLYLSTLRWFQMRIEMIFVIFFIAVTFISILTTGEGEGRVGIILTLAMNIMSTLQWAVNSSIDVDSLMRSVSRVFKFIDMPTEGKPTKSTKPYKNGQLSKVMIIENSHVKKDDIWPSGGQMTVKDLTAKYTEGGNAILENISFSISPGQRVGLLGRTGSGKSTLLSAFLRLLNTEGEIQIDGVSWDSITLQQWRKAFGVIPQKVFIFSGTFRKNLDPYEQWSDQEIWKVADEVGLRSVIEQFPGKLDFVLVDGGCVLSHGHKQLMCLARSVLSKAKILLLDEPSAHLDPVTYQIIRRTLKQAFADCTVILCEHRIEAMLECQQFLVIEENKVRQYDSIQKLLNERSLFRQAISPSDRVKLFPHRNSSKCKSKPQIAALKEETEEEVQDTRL

The EC50 is the concentration giving half of the maximal effect. In the case of `CCC(=O)Nc1ncc(Cc2ccccc2Cl)s1` [compound 208], the “% Activity” value is recorded as “++ (“++” means between 25% to 100%)” and the EC50 was in the range of 25 to 60 µM.

For `O=C(Nc1ncc(Cc2ccccc2Cl)s1)C1CCCC1` [compound 209], the “% Activity” value was “++ (“++” means between 25% to 100%)” and the EC50 was < 10 µM.

With `CCCC(=O)Nc1ncc(Cc2ccccc2Cl)s1` [compound 210], the “% Activity” value was “++ (“++” means between 25% to 100%)” and the EC50 fell in the range of 10 to 25 µM.

On to `CN(C)C(C(=O)Nc1ncc(Cc2ccccc2Cl)s1)c1ccccc1` (stereo not drawn) [compound 211], for which the “% Activity” value is listed as “++ (“++” means between 25% to 100%)” and the EC50 is < 10 µM.

For `CCN(CC)C(C(=O)Nc1ncc(Cc2ccccc2Cl)s1)c1ccccc1` (stereo not drawn) [compound 212], the “% Activity” value is listed as “++ (“++” means between 25% to 100%)” and the EC50 was < 10 µM.

With `CCNC(C(=O)Nc1ncc(Cc2ccccc2Cl)s1)c1ccccc1` (stereo not drawn) [compound 213], the “% Activity” value was “++ (“++” means between 25% to 100%)” and the EC50 lay within 10 to 25 µM.

Regarding `O=C(Nc1ncc(Cc2ccccc2Cl)s1)C(c1ccccc1)N1CCOCC1` (stereo not drawn) [compound 214], the “% Activity” value is “++ (“++” means between 25% to 100%)” and the EC50 fell in the range of 10 to 25 µM.

Take `O=C(Nc1ncc(Cc2ccccc2Cl)s1)C(c1ccccc1)N1CCCCC1` (stereo not drawn) [compound 215]: the “% Activity” value was “++ (“++” means between 25% to 100%)” and the EC50 is < 10 µM.

Turning to `COC(C(=O)Nc1ncc(Cc2ccccc2Cl)s1)c1ccccc1` (stereo not drawn) [compound 216], the “% Activity” value was “++ (“++” means between 25% to 100%)” and the EC50 was 10 to 25 µM.

Consider `CNC(C(=O)Nc1ncc(Cc2ccccc2Cl)s1)c1ccccc1` (stereo not drawn) [compound 217], for which the “% Activity” value is on record as “++ (“++” means between 25% to 100%)” and the EC50 was in the range of 25 to 60 µM.

With `CCC(NC)C(=O)Nc1ncc(Cc2ccccc2Cl)s1` (stereo not drawn) [compound 218], the “% Activity” value is recorded as “++ (“++” means between 25% to 100%)” and the EC50 fell in the range of 25 to 60 µM.

Regarding `CCC(OC)C(=O)Nc1ncc(Cc2ccccc2Cl)s1` (stereo not drawn) [compound 219], the “% Activity” value is “++ (“++” means between 25% to 100%)” and the EC50 was 25 to 60 µM.

Take `CCNC(CC)C(=O)Nc1ncc(Cc2ccccc2Cl)s1` (stereo not drawn) [compound 220]: the “% Activity” value is given as “++ (“++” means between 25% to 100%)” and the EC50 was 25 to 60 µM.

As for `CCC(C(=O)Nc1ncc(Cc2ccccc2Cl)s1)N(CC)CC` (stereo not drawn) [compound 221], the “% Activity” value is “++ (“++” means between 25% to 100%)” and the EC50 lay within 10 to 25 µM.

As to `CCC(C(=O)Nc1ncc(Cc2ccccc2Cl)s1)N(C)C` (stereo not drawn) [compound 222], the “% Activity” value was “++ (“++” means between 25% to 100%)” and the EC50 was 25 to 60 µM.

With `CCC(C(=O)Nc1ncc(Cc2ccccc2Cl)s1)N1CCOCC1` (stereo not drawn) [compound 223], the “% Activity” value is “++ (“++” means between 25% to 100%)” and the EC50 fell in the range of 25 to 60 µM.

Take `CCC(C(=O)Nc1ncc(Cc2ccccc2Cl)s1)N1CCSCC1` (stereo not drawn) [compound 224]: the “% Activity” value was “++ (“++” means between 25% to 100%)” and the EC50 is < 10 µM.

Regarding `CCC(C(=O)Nc1ncc(Cc2ccccc2Cl)s1)N1CCCCC1` (stereo not drawn) [compound 225], the “% Activity” value is “++ (“++” means between 25% to 100%)” and the EC50 is < 10 µM.

Take `Cc1cccc(C(=O)Nc2ncc(-c3ccccc3)s2)c1` [compound 226]: the “% Activity” value is on record as “++ (“++” means between 25% to 100%)” and the EC50 was in the range of 10 to 25 µM.

Consider `COc1ccccc1-c1csc(NC(=O)c2cccc(Cl)c2)n1` [compound 227], for which the “% Activity” value is “++ (“++” means between 25% to 100%)” and the EC50 lay in the range of 10 to 25 µM.

Regarding `Cc1cccc(C(=O)Nc2nc(-c3ccccc3Cl)cs2)c1` [compound 228], the “% Activity” value is “++ (“++” means between 25% to 100%)” and the EC50 was 10 to 25 µM.

`O=C(Nc1nc(-c2ccccc2Cl)cs1)c1cccc(Cl)c1` [compound 229]: the “% Activity” value is listed as “++ (“++” means between 25% to 100%)” and the EC50 is 10 to 25 µM.

For `Cc1ccc(C(=O)Nc2nc(-c3ccccc3Cl)cs2)cc1` [compound 230], the “% Activity” value is listed as “+++ (“+++” means >100%)” and the EC50 is < 10 µM.

On to `COc1cccc(-c2csc(NC(=O)c3cccc(C)c3)n2)c1` [compound 231], for which the “% Activity” value is on record as “+++ (“+++” means >100%)” and the EC50 was 10 to 25 µM.

Regarding `COc1cccc(-c2csc(NC(=O)c3cccc(Cl)c3)n2)c1` [compound 232], the “% Activity” value is recorded as “++ (“++” means between 25% to 100%)” and the EC50 fell in the range of 10 to 25 µM.

Regarding `O=C(Nc1ncc(-c2ccccc2)s1)c1cccc(Cl)c1` [compound 233], the “% Activity” value is recorded as “++ (“++” means between 25% to 100%)” and the EC50 fell in the range of 25 to 60 µM.

Turning to `CCOC(C(=O)Nc1ncc(Cc2ccccc2Cl)s1)c1ccccc1` (stereo not drawn) [compound 234], the “% Activity” value was “++ (“++” means between 25% to 100%)” and the EC50 is 10 to 25 µM.

For `O=C(Nc1ncc(Cc2ccccc2Cl)s1)C(c1ccccc1)n1cccn1` (stereo not drawn) [compound 235], the “% Activity” value is “++ (“++” means between 25% to 100%)” and the EC50 was < 10 µM.

As for `COc1ccccc1Cc1cnc(NC(=O)C(C)(C)c2ccccc2)s1` [compound 237], the “% Activity” value was “+++ (“+++” means >100%)” and the EC50 was < 10 µM.

Regarding `CC(C)(C(=O)Nc1ncc(Cc2ccccc2Cl)s1)c1ccccc1` [compound 238], the “% Activity” value is given as “+++ (“+++” means >100%)” and the EC50 was < 10 µM.

Turning to `CCN(C)C(C(=O)Nc1ncc(Cc2ccccc2Cl)s1)c1ccccc1` (stereo not drawn) [compound 239], the “% Activity” value is on record as “++ (“++” means between 25% to 100%)” and the EC50 is < 10 µM.

`CN(C1CCCCC1)C(C(=O)Nc1ncc(Cc2ccccc2Cl)s1)c1ccccc1` (stereo not drawn) [compound 240]: the “% Activity” value is “++ (“++” means between 25% to 100%)” and the EC50 is < 10 µM.

For the compound `O=C(Nc1ncc(Cc2ccccc2Cl)s1)C(c1ccccc1)N1CCCC1` (stereo not drawn) [compound 241], the “% Activity” value is recorded as “++ (“++” means between 25% to 100%)” and the EC50 was < 10 µM.

On to `CC1CCCN1C(C(=O)Nc1ncc(Cc2ccccc2Cl)s1)c1ccccc1` (stereo not drawn) [compound 242], for which the “% Activity” value was “+++ (“+++” means >100%)” and the EC50 was < 10 µM.

In the case of `CC1CCCN(C(C(=O)Nc2ncc(Cc3ccccc3Cl)s2)c2ccccc2)C1` (stereo not drawn) [compound 243], the “% Activity” value is reported as “+++ (“+++” means >100%)” and the EC50 is < 10 µM.

`O=C(Nc1ncc(Cc2ccccc2Cl)s1)C(c1ccccc1)N1CCCC(CO)C1` (stereo not drawn) [compound 244]: the “% Activity” value is reported as “++ (“++” means between 25% to 100%)” and the EC50 was < 10 µM.

For `CCOC(=O)C1CCCN(C(C(=O)Nc2ncc(Cc3ccccc3Cl)s2)c2ccccc2)C1` (stereo not drawn) [compound 245], the “% Activity” value is “++ (“++” means between 25% to 100%)” and the EC50 was < 10 µM.

Take `CC1CCN(C(C(=O)Nc2ncc(Cc3ccccc3Cl)s2)c2ccccc2)CC1` (stereo not drawn) [compound 246]: the “% Activity” value is given as “++ (“++” means between 25% to 100%)” and the EC50 was < 10 µM.

On to `CCOC(=O)C1CCN(C(C(=O)Nc2ncc(Cc3ccccc3Cl)s2)c2ccccc2)CC1` (stereo not drawn) [compound 247], for which the “% Activity” value is reported as “+++ (“+++” means >100%)” and the EC50 was < 10 µM.

With `O=C(Nc1ncc(Cc2ccccc2Cl)s1)C(c1ccccc1)N1CCC(O)CC1` (stereo not drawn) [compound 248], the “% Activity” value is reported as “++ (“++” means between 25% to 100%)” and the EC50 is < 10 µM.

As for `O=C(Nc1ncc(Cc2ccccc2Cl)s1)C(c1ccccc1)N1CCN(c2ncccn2)CC1` (stereo not drawn) [compound 249], the “% Activity” value was “++ (“++” means between 25% to 100%)” and the EC50 is < 10 µM.

For `O=C(Nc1ncc(Cc2ccccc2Cl)s1)C(NC1CCCC1)c1ccccc1` (stereo not drawn) [compound 250], the “% Activity” value is recorded as “++ (“++” means between 25% to 100%)” and the EC50 was < 10 µM.

As for `CCC(Nc1ccccc1)C(=O)Nc1ncc(Cc2ccccc2Cl)s1` (stereo not drawn) [compound 251], the “% Activity” value was “++ (“++” means between 25% to 100%)” and the EC50 was < 10 µM.

On to `CCC(Oc1ccccc1)C(=O)Nc1ncc(Cc2ccccc2Cl)s1` (stereo not drawn) [compound 252], for which the “% Activity” value is reported as “++ (“++” means between 25% to 100%)” and the EC50 lay in the range of 10 to 25 µM.

For `CCOC(=O)C1CCCCN1C(C(=O)Nc1ncc(Cc2ccccc2Cl)s1)c1ccccc1` (stereo not drawn) [compound 253], the “% Activity” value is on record as “++ (“++” means between 25% to 100%)” and the EC50 was 25 to 60 µM.

With `CN(Cc1ccccc1)C(C(=O)Nc1ncc(Cc2ccccc2Cl)s1)c1ccccc1` (stereo not drawn) [compound 254], the “% Activity” value is reported as “++ (“++” means between 25% to 100%)” and the EC50 is < 10 µM.

In the case of `CCC(C(=O)Nc1ncc(Cc2ccccc2Cl)s1)c1cccnc1` (stereo not drawn) [compound 255], the “% Activity” value is “++ (“++” means between 25% to 100%)” and the EC50 was < 10 µM.

For the compound `N#Cc1ccccc1Cc1cnc(NC(=O)C(c2ccccc2)C2CCCCC2)s1` (stereo not drawn) [compound 256], the “% Activity” value is “++ (“++” means between 25% to 100%)” and the EC50 was < 10 µM.

Take `CC(C(=O)Nc1ncc(Cc2ccccc2C#N)s1)c1ccccc1` (stereo not drawn) [compound 257]: the “% Activity” value is reported as “++ (“++” means between 25% to 100%)” and the EC50 was in the range of 25 to 60 µM.

Turning to `CCC(C(=O)Nc1ncc(Cc2ccccc2C#N)s1)c1ccccc1` (stereo not drawn) [compound 258], the “% Activity” value is “++ (“++” means between 25% to 100%)” and the EC50 fell in the range of 10 to 25 µM.

In the case of `CCC(C)C(C(=O)Nc1ncc(Cc2ccccc2C#N)s1)c1ccccc1` (stereo not drawn) [compound 259], the “% Activity” value is given as “++ (“++” means between 25% to 100%)” and the EC50 was < 10 µM.
